This test deals with T1, Recombinant human BRD4 containing dual bromodomains (BRD4-BD12 (1-477)) (Homo sapiens, UniProt O60885).
T1 construct: Recombinant human BRD4 containing dual bromodomains (BRD4-BD12 (1-477)); made in house; host or cells: E. coli BL21-CodonPlus (DE3), modified pET vector
Description: BRD4 Alphascreen binding assay. Here is the method:
BRD4 Alphascreen Binding Assay
Binding of compounds of Formula (I) with BRD4 was assessed using Alphascreen binding assay. The inhibition of the interaction between BRD4 and its acetylated target protein was measured quantitatively using recombinant BRD4 protein, an acetylated Histone 4 peptide, and AlphaScreen™ technology. In absence of inhibition of the BRD4 protein bound to AlphaScreen™ nickel chelate acceptor beads can interact with the acetylated Histone 4 peptide which was immobilized by the AlphaScreen™ Streptavidin coated beads. This interaction brings donor and acceptor beads in proximity. The close proximity allows the singlet oxygen produced by laser excitation of the donor beads to reach the acceptor beads and generate a luminescence signal. BRD4 inhibitors result in a decrease in the proximity signal through an inhibition of the BRD4—acetylated peptide interaction.
Recombinant human BRD4 containing dual bromodomains (BRD4-BD12 (1-477)) was prepared and purified as described in protein expression and purification session. The peptide was human Histone H41-21K5AcK8AcK12AcK16Ac-Biotin (Anaspec CA, USA).
Protocol for BRD4 assay: All components are prepared in buffer composed of 50 mM HEPES pH 7.5, 50 mM NaCl, 0.01% BSA, 0.01% Triton X-100, 2 mM DTT. Test compounds and DMSO vehicle are diluted 1:50 in buffer and a 4 μL volume was transferred to an Alphaplate. 5.5 μL of Bromodomain protein and 5.5 μL of peptide are added to wells containing 4 μL of various concentrations of test compounds of Formula (I) or DMSO vehicle in an Alphaplate (PerkinElmer GA, USA) and incubated for 1 hour at room temperature. 5 μL donor and acceptor bead mixture was then added with final concentrations of 7.5 μg/ml. 30 minutes after bead addition, Alpha signal was read on the Envision spectrometer (λEx 680 nm, λEm 520-620 nm). Final concentrations of bromodomain proteins and peptide are as shown below.
All data were normalized to the mean of 16 high and 16 low control wells on each plate. A four parameter curve fit of the following formula was then applied: Y=A+((B−A)/(1+((C/x)^D))) Where ‘A’ is the minimum, ‘B’ is the maximum, ‘C’ is the IC50 and ‘D’ is the Hill slope. Protein Expression and Purification
Recombinant human BRD4 containing dual bromodomains (BRD4-BD12 (1-477)) was expressed in E. coli cells (in a modified pET vector) with an N-terminal six-His tag and purified using a combination of both IMAC (Ni-affinity) and size exclusion chromatography steps.
Recombinant BRD4 was expressed using the E. coli strain BL21-CodonPlus (DE3) (Agilent Technologies CA, USA). Cells were grown in Terrific Broth (TB) media to an OD600 of 2.0 at 37° C. at which temperature was reduced to 18° C., protein was induced with 0.1 mM isopropyl-β-D-thiogalactopyranoside (“IPTG”) for 12-18 hours and harvested by centrifugation at 8000×g for 20 minutes. Cells were re-suspended in 40 mM Tris-HCl pH 8.0, 0.5 M NaCl, 25 mM Imidazole, 5% glycerol, 1/200 vol. Protease Inhibitor Cocktail Set III (Calbiochem), 5 mM beta-mercaptoethanol (“BME”), 0.5 mg/mL Lysozyme, and 0.5 mg/mL DNaseI, incubated on ice for 30 minutes and lysed with a cell disruptor (MicroFluidics MA, USA). The lysate was clarified by centrifugation at 20,000×g for 2 hours. The protein was captured with Ni-NTA resin (Life Technologies, USA). Contaminating proteins were washed off with 40 mM Tris-HCl pH 8.0, 0.5 M NaCl, 25 mM Imidazole, 5% glycerol, and 5 mM BME. Following 3× wash steps, protein was eluted step wise into wash buffer containing 50, 100, 150, 500 mM Imidazole. The protein was further purified using Gel Filtration column 16/60 Superdex 200 (GE Biosciences NJ, USA) in 10 mM HEPES pH 8.0, 150 mM NaCl, and 5 mM DTT. Glycerol was added to a final concentration of 12% and the protein was aliquoted and flash-frozen in liquid Nitrogen.

pIC50: −log10 of the molar value.

One may read the pIC50 as −log10 of the IC50, conventionally taken in molar units. Consider `Cc1ccc(S(=O)(=O)n2cc(-c3ccc(C(=O)O)cc3)c3cc(-c4c(C)noc4C)cnc32)cc1` [P-0006, 4-(5-(3,5-dimethylisoxazol-4-yl)-1-tosyl-1H-pyrrolo[2,3-b]pyridin-3-yl)benzoic acid], for which the pIC50 is 3.00 to 5.10.

As to `Cc1noc(C)c1-c1cnc2c(c1)c(-c1ccc(C(=O)O)cc1)cn2C(c1ccccn1)C1CC1` (stereo not drawn) [P-0007, 4-(1-(cyclopropyl(pyridin-2-yl)methyl)-5-(3,5-dimethylisoxazol-4-yl)-1H-pyrrolo[2,3-b]pyridin-3-yl)benzoic acid], the negative logarithm of the IC50 (pIC50) was 3.00 to 5.10.

Regarding `Cc1noc(C)c1-c1cnc2c(c1)c(-c1ccc(C(=O)O)cc1)cn2C(c1ccccn1)C1CCC1` (stereo not drawn) [P-0008, 4-(1-(cyclobutyl(pyridin-2-yl)methyl)-5-(3,5-dimethylisoxazol-4-yl)-1H-pyrrolo[2,3-b]pyridin-3-yl)benzoic acid], the pIC50 is 3.00 to 5.10.

Take `Cc1noc(C)c1-c1cnc2c(CC3CCC3)cn(-c3ccc(C(=O)O)cn3)c2c1` [P-0009, 6-(3-(cyclobutylmethyl)-6-(3,5-dimethylisoxazol-4-yl)-1H-pyrrolo[3,2-b]pyridin-1-yl)nicotinic acid]: the pIC50 is 3.00 to 5.10.

In the case of `Cc1noc(C)c1-c1cnc2c(CC3CC3)cn(-c3ccc(C(=O)O)cn3)c2c1` [P-0010, 6-(3-(cyclopropylmethyl)-6-(3,5-dimethylisoxazol-4-yl)-1H-pyrrolo[3,2-b]pyridin-1-yl)nicotinic acid], the pIC50 was 3.00 to 5.10.

Regarding `Cc1noc(C)c1-c1cnc2c(Cc3ccccn3)cn(-c3ccc(C(=O)O)cn3)c2c1` [P-0011, 6-(6-(3,5-dimethylisoxazol-4-yl)-3-(pyridin-2-ylmethyl)-1H-pyrrolo[3,2-b]pyridin-1-yl)nicotinic acid], the pIC50 was 3.00 to 5.10.

Regarding `Cc1noc(C)c1-c1cnc2c(c1)c(-c1ccc(C(=O)O)cc1)cn2C(c1ccccn1)c1ccccn1` [P-0012, 4-(1-(di(pyridin-2-yl)methyl)-5-(3,5-dimethylisoxazol-4-yl)-1H-pyrrolo[2,3-b]pyridin-3-yl)benzoic acid], the pIC50 was 3.00 to 5.10.

With `Cc1noc(C)c1-c1cnc2c(c1)c(-c1ccc(C(=O)O)cc1F)cn2[C@@H](C)c1ccccn1` [P-0097, (S)-4-(5-(3,5-dimethylisoxazol-4-yl)-1-(1-(pyridin-2-yl)ethyl)-1H-pyrrolo[2,3-b]pyridin-3-yl)-3-fluorobenzoic acid], the pIC50 was 3.00 to 5.10.

For the compound `COc1ccc(C(=O)O)cc1-n1cc(CC2CCC2)c2ncc(-c3c(C)noc3C)cc21` [P-0098, 3-(3-(cyclobutylmethyl)-6-(3,5-dimethylisoxazol-4-yl)-1H-pyrrolo[3,2-b]pyridin-1-yl)-4-methoxybenzoic acid], the negative logarithm of the IC50 (pIC50) is 5.10 to 6.00.

Turning to `Cc1noc(C)c1-c1cnc2c(C(=O)c3cccc(OC(F)F)c3)cn(-c3ccnc(C(=O)O)c3)c2c1` [P-0099, 4-(3-(3-(difluoromethoxy)benzoyl)-6-(3,5-dimethylisoxazol-4-yl)-1H-pyrrolo[3,2-b]pyridin-1-yl)picolinic acid], the pIC50 was 5.10 to 6.00.

`Cc1noc(C)c1-c1cnc2c(Cc3cccc(OC(F)F)c3)cn(-c3ccnc(C(=O)O)c3)c2c1` [P-0100, 4-(3-(3-(difluoromethoxy)benzyl)-6-(3,5-dimethylisoxazol-4-yl)-1H-pyrrolo[3,2-b]pyridin-1-yl)picolinic acid]: the pIC50 was 5.10 to 6.00.

Take `Cc1noc(C)c1-c1cnc2c(c1)c(-c1cccc(C(=O)O)c1)cn2CC1CC(F)(F)C1` [P-0101, 3-(1-((3,3-difluorocyclobutyl)methyl)-5-(3,5-dimethylisoxazol-4-yl)-1H-pyrrolo[2,3-b]pyridin-3-yl)benzoic acid]: the pIC50 was 3.00 to 5.10.

For the compound `Cc1noc(C)c1-c1cnc2c(c1)c(-c1cccc(C(=O)O)c1)cn2CC1(C)COC1` [P-0102, 3-(5-(3,5-dimethylisoxazol-4-yl)-1-((3-methyloxetan-3-yl)methyl)-1H-pyrrolo[2,3-b]pyridin-3-yl)benzoic acid], the pIC50 was 3.00 to 5.10.

`COc1cc(C(=O)O)cc(OC)c1-c1cn([C@@H](C)c2ccccn2)c2ncc(-c3c(C)noc3C)cc12` [P-0103, (S)-4-(5-(3,5-dimethylisoxazol-4-yl)-1-(1-(pyridin-2-yl)ethyl)-1H-pyrrolo[2,3-b]pyridin-3-yl)-3,5-dimethoxybenzoic acid]: the pIC50 is 3.00 to 5.10.

With `Cc1noc(C)c1-c1cnc2c(CC3CCC3)cn(-c3ccc(C#N)c(C(=O)O)c3)c2c1` [P-0104, 2-cyano-5-(3-(cyclobutylmethyl)-6-(3,5-dimethylisoxazol-4-yl)-1H-pyrrolo[3,2-b]pyridin-1-yl)benzoic acid], the pIC50 was 3.00 to 5.10.

For `Cc1noc(C)c1-c1cnc2c(CC3CCC3)cn(-c3ccc(C(=O)O)c(C#N)c3)c2c1` [P-0105, 2-cyano-4-(3-(cyclobutylmethyl)-6-(3,5-dimethylisoxazol-4-yl)-1H-pyrrolo[3,2-b]pyridin-1-yl)benzoic acid], the pIC50 was 3.00 to 5.10.

In the case of `Cc1noc(C)c1-c1cnc2c(c1)c(-c1cncc(C(=O)O)n1)cn2[C@@H](C)c1ccccn1` [P-0106, (S)-6-(5-(3,5-dimethylisoxazol-4-yl)-1-(1-(pyridin-2-yl)ethyl)-1H-pyrrolo[2,3-b]pyridin-3-yl)pyrazine-2-carboxylic acid], the negative-log IC50 (pIC50) was 3.00 to 5.10.

Regarding `Cc1noc(C)c1-c1cnc2c(c1)c(-c1nccc(C(=O)O)n1)cn2[C@@H](C)c1ccccn1` [P-0107, (S)-2-(5-(3,5-dimethylisoxazol-4-yl)-1-(1-(pyridin-2-yl)ethyl)-1H-pyrrolo[2,3-b]pyridin-3-yl)pyrimidine-4-carboxylic acid], the pIC50 was 3.00 to 5.10.

On to `CCOc1cc(C(=O)O)cc(F)c1-n1cc(CC2CCC2)c2ncc(-c3c(C)noc3C)cc21` [P-0108, 4-(3-(cyclobutylmethyl)-6-(3,5-dimethylisoxazol-4-yl)-1H-pyrrolo[3,2-b]pyridin-1-yl)-3-ethoxy-5-fluorobenzoic acid], for which the pIC50 is 5.10 to 6.00.

As to `CCOc1cc(C(=O)O)cc(OCC)c1-n1cc(CC2CCC2)c2ncc(-c3c(C)noc3C)cc21` [P-0109, 4-(3-(cyclobutylmethyl)-6-(3,5-dimethylisoxazol-4-yl)-1H-pyrrolo[3,2-b]pyridin-1-yl)-3,5-diethoxybenzoic acid], the pIC50 was 5.10 to 6.00.

In the case of `Cc1noc(C)c1-c1cnc2c(CC3CCC3)cn(-c3ccc(C(=O)O)c4ccoc34)c2c1` [P-0110, 7-(3-(cyclobutylmethyl)-6-(3,5-dimethylisoxazol-4-yl)-1H-pyrrolo[3,2-b]pyridin-1-yl)benzofuran-4-carboxylic acid], the negative logarithm of the IC50 (pIC50) was 5.10 to 6.00.

With `Cc1noc(C)c1-c1cnc2c(CC3CCC3)cn(-c3c(OC(C)C)cc(C(=O)O)cc3OC(C)C)c2c1` [P-0111, 4-(3-(cyclobutylmethyl)-6-(3,5-dimethylisoxazol-4-yl)-1H-pyrrolo[3,2-b]pyridin-1-yl)-3,5-diisopropoxybenzoic acid], the pIC50 is 3.00 to 5.10.

As to `Cc1noc(C)c1-c1cnc2c(c1)c(-c1ccc(C(=O)O)cc1OC(C)C)cn2[C@@H](C)c1ccccn1` [P-0112, (S)-4-(5-(3,5-dimethylisoxazol-4-yl)-1-(1-(pyridin-2-yl)ethyl)-1H-pyrrolo[2,3-b]pyridin-3-yl)-3-isopropoxybenzoic acid], the pIC50 was 3.00 to 5.10.

On to `CCCOc1cc(C(=O)O)ccc1-c1cn([C@@H](C)c2ccccn2)c2ncc(-c3c(C)noc3C)cc12` [P-0113, (S)-4-(5-(3,5-dimethylisoxazol-4-yl)-1-(1-(pyridin-2-yl)ethyl)-1H-pyrrolo[2,3-b]pyridin-3-yl)-3-propoxybenzoic acid], for which the pIC50 was 3.00 to 5.10.
